Results: patent US20240109930A1, “TRIAZOLYL-METHYL SUBSTITUTED ALPHA-D-GALACTOPYRANOSIDE DERIVATIVES” (Idorsia Pharmaceuticals Ltd, priority 2021, published 2024)

Columns and labels:
[1] = molecular target: human Gal-3 (hGal-3) (Homo sapiens (Human), UniProt P17931); test: Competitive binding assay: biotinylated hGal-3 binding to microplate-adsorbed asialofetuin (ASF); settings: IC50 values from several measurements given as geomean
Procedure, shortened: (§1)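 Biotinylated hGal-3 or hGal-1 (preferably cysteine-free Cys→Ser mutant), 300–1000 ng/mL, competes with compound for ASF-coated wells for 3 h at 4 °C. Bound lectin detected with streptavidin-peroxidase (80 ng/mL, 1 h, 4 °C) and ABTS by absorbance; IC50 reported as geomean of several runs.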

[2] = molecular target: human Gal-1 (hGal-1) (Homo sapiens, UniProt P09382, C131S/C17S/C43S/C61S/C89S); test: Competitive binding assay: biotinylated hGal-1 binding to microplate-adsorbed asialofetuin (ASF); settings: IC50 values from several measurements given as geomean
Procedure, shortened: as §1

Sequence of human Gal-3 (hGal-3) (P17931 whole entry): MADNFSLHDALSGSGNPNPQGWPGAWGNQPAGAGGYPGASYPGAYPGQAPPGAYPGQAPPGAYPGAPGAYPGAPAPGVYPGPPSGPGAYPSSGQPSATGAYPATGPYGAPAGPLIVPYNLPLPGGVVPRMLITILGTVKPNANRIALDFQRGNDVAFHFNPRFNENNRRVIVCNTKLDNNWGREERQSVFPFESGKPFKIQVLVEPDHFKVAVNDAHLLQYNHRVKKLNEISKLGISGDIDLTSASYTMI

SMILES | IC50 [1] [nM] | IC50 [2] [nM]
CO[C@@H]1[C@@H](n2cc(-c3ccc(Cl)c(F)c3F)nn2)[C@@H](O)[C@@H](CO)O[C@@H]1Cn1cc(C2(O)CCOCC2)nn1 [Ex 2.2.35.] | 60 | 3910
CO[C@@H]1[C@@H](n2cc(-c3ccc(Cl)c(F)c3F)nn2)[C@@H](O)[C@@H](CO)O[C@@H]1Cn1cc(C2(O)CC2)nn1 [Ex 2.2.36.] | 90 | 3160
CO[C@@H]1[C@@H](n2cc(-c3ccc(Cl)c(F)c3F)nn2)[C@@H](O)[C@@H](CO)O[C@@H]1Cn1cc(C2(C(F)(F)F)CC2)nn1 [Ex 2.2.54.] | 70 | 2460
CO[C@@H]1[C@@H](n2cc(-c3ccc(Cl)c(F)c3F)nn2)[C@@H](O)[C@@H](CO)O[C@@H]1Cn1cc(C2CC(F)(F)C2)nn1 [Ex 2.2.83.] | 160 | 8800
CO[C@@H]1[C@@H](n2cc(-c3ccc(Cl)c(F)c3F)nn2)[C@@H](O)[C@@H](CO)O[C@@H]1Cn1cc(C2CC3(C2)CC(F)(F)C3)nn1 [Ex 2.2.84.] | 240 | 11000
CO[C@@H]1[C@@H](n2cc(-c3ccc(F)c(F)c3F)nn2)[C@@H](O)[C@@H](CO)O[C@@H]1Cc1cn(C2(CO)CC2)nn1 [Ex 3.1.4.] | 60 | 810
COCC1(n2cc(C[C@H]3O[C@H](CO)[C@H](O)[C@H](n4cc(-c5ccc(F)c(F)c5F)nn4)[C@H]3OC)nn2)CC1 [Ex 3.1.7., (2R,3R,4S,5R,6R)-2-(Hydroxymethyl)-5-methoxy-6-((1-(1-(methoxymethyl)cyclopropyl)-1H-1,2,3-triazol-4-yl)methyl)-4-(4-(2,3,4-trifluorophenyl)-1H-1,2,3-triazol-1-yl)tetrahydro-2H-pyran-3-ol] | 120 | 1200
CO[C@@H]1[C@@H](n2cc(-c3ccc(F)c(F)c3F)nn2)[C@@H](O)[C@@H](CO)O[C@@H]1Cc1cn(C2(CO)CCC2)nn1 [Ex 3.1.11.] | 40 | 890
CO[C@@H]1[C@@H](n2cc(-c3ccc(F)c(F)c3F)nn2)[C@@H](O)[C@@H](CO)O[C@@H]1Cc1cn(C23CC(C2)C3)nn1 [Ex 3.1.12.] | 60 | 950

Continued, values first:

IC50 [1] [nM] | IC50 [2] [nM] | SMILES
70 | 5120 | CO[C@@H]1[C@@H](n2cc(-c3ccc(Cl)c(F)c3F)nn2)[C@@H](O)[C@@H](CO)O[C@@H]1Cn1cc(C(C)(C)O)nn1 [Ex 2.2.34.]
70 | 13100 | COC1=C(N2CC(c3ccc(Cl)c(F)c3F)NN2)C(O)=C(CO)O[C@@H]1Cn1cc(C23CCC(NC(=O)OC(C)(C)C)(CC2)CC3)nn1 (stereo partly shown) [Ex 2.2.37.]
70 | 6070 | CO[C@@H]1[C@@H](n2cc(-c3ccc(Cl)c(F)c3F)nn2)[C@@H](O)[C@@H](CO)O[C@@H]1Cc1cn(C23CCC(N)(CC2)CC3)nn1 [Ex 2.2.39.]
60 | 2550 | CO[C@@H]1[C@@H](n2cc(-c3ccc(Cl)c(F)c3F)nn2)[C@@H](O)[C@@H](CO)O[C@@H]1Cn1cc(C2(C(F)F)CC2)nn1 [Ex 2.2.51.]
170 | 5400 | CO[C@@H]1[C@@H](n2cc(-c3ccc(Cl)c(F)c3F)nn2)[C@@H](O)[C@@H](CO)O[C@@H]1Cn1cc(C2(O)CC(F)(F)C2)nn1 [Ex 2.2.85.]
120 | 7150 | CO[C@@H]1[C@@H](n2cc(-c3ccc(Cl)c(F)c3F)nn2)[C@@H](O)[C@@H](CO)O[C@@H]1Cn1cc([C@H]2C[C@@H](N)C2)nn1 [Ex 2.2.87.]
60 | 600 | CO[C@@H]1[C@@H](n2cc(-c3ccc(F)c(F)c3F)nn2)[C@@H](O)[C@@H](CO)O[C@@H]1Cc1cn(C2(CO)CCCC2)nn1 [Ex 3.1.5.]
50 | 190 | CO[C@@H]1[C@@H](n2cc(-c3ccc(F)c(F)c3F)nn2)[C@@H](O)[C@@H](CO)O[C@@H]1Cc1cn(C2(C)COC2)nn1 [Ex 3.1.6., (2R,3R,4S,5R,6R)-2-(hydroxymethyl)-5-methoxy-6-((1-(3-methyloxetan-3-yl)-1H-1,2,3-triazol-4-yl)methyl)-4-(4-(2,3,4-trifluorophenyl)-1H-1,2,3-triazol-1-yl)tetrahydro-2H-pyran-3-ol]
